Values quoted from earlier work, collected in patent US8101779B2, “Enantioselective synthesis of (+) and (–)-2-[1-(2,6-dichlorophenoxy)-ethyl]-1,3-diazacyclopent-2-ene” (University of Kentucky Research Foundation, priority 2008, dated 2012).

SMILES | dose at which the effect of lowering mean arterial blood pressure is apparent (effect apparent at doses as low as) | dose at which lowering of mean arterial blood pressure is not seen (effect not seen even at doses as high as)
CC(Oc1c(Cl)cccc1Cl)C1=NCCN1 (single isomer, unassigned; (+)) [(+)-lofexidine, (+) 2-[1-(2,6-dichlorophenoxy)-ethyl]1,3-diazacyclopent-2-ene] | ≤ 0.561 µg/kg | –
CC(Oc1c(Cl)cccc1Cl)C1=NCCN1 (single isomer, unassigned; (-)) [(−)-lofexidine, (−)-2-[1-(2,6-dichlorophenoxy)-ethyl]-1,3-diazacyclopent-2-ene] | – | > 10 µg/kg
